This note sets out measurements from ChEMBL document CHEMBL4680119, “Battle tactics against MMP-9; discovery of novel non-hydroxamate MMP-9 inhibitors endowed with PI3K/AKT signaling attenuation and caspase 3/7 activation via Ugi bis-amide synthesis” (Eur J Med Chem, 2020).

Each structure is given as a SMILES string.

Broadly, the IC50 is the concentration that inhibits the measured activity by half.

The nature of series [1]: Anticancer activity against […] cells assessed as reduction in cell viability by MTT assay. As to conditions: Mus musculus. It is filed as functional, cell-based. Background: Tetrazolium dyes change colour on reduction, which living cells bring about.
In a further series the test system is HepG2. The series is described as follows: Anticancer activity against human HepG2 cells assessed as reduction in cell viability by MTT assay. It is filed as functional, cell-based.
A short description of a further series: in vitro. The following applies: human, WI38 cells and HepG2 cells.
A further series deals with MCF7. The series is described as follows: cells. As to conditions: Homo sapiens.
The test system of a further series is WI-38. The series is described as follows: Cytotoxicity against human WI-38 cells assessed as reduction in cell viability by MTT assay. It is filed as cell-based. The following applies: for IC50: Homo sapiens, WI-38; for EC100: human, wi-38.
The target in series [2] is 72 kDa type IV collagenase (Homo sapiens, UniProt P08253). As to the kind of experiment: Inhibition of MMP-2 (unknown origin) by colorimetric assay.
Series [3] has as its target Matrix metalloproteinase-9 (Homo sapiens, UniProt P14780). As to the kind of experiment: Inhibition of MMP-9 (unknown origin) by colorimetric assay.
Another series has as its target Collagenase 3 (Homo sapiens, UniProt P45452). The series is described as follows: Inhibition of MMP-13 (unknown origin) by colorimetric assay.

Sequence of 72 kDa type IV collagenase (P08253 whole entry): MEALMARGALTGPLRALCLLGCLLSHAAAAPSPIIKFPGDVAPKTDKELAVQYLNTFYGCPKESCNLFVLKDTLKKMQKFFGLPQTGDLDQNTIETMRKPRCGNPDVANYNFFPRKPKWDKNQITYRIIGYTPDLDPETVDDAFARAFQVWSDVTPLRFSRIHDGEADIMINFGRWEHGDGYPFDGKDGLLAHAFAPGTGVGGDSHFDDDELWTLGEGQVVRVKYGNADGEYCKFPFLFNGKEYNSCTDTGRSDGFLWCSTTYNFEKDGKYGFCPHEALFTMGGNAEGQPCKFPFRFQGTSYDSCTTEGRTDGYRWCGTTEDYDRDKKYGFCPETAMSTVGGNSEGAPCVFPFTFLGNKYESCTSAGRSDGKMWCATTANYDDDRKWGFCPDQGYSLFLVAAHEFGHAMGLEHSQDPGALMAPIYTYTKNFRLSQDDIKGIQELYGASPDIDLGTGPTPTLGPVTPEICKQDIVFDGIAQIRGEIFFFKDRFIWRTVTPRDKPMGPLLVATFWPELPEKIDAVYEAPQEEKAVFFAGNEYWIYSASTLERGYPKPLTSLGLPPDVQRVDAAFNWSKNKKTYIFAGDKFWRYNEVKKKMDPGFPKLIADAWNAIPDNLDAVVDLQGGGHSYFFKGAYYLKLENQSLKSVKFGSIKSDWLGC
Sequence of Matrix metalloproteinase-9 (P14780 whole entry): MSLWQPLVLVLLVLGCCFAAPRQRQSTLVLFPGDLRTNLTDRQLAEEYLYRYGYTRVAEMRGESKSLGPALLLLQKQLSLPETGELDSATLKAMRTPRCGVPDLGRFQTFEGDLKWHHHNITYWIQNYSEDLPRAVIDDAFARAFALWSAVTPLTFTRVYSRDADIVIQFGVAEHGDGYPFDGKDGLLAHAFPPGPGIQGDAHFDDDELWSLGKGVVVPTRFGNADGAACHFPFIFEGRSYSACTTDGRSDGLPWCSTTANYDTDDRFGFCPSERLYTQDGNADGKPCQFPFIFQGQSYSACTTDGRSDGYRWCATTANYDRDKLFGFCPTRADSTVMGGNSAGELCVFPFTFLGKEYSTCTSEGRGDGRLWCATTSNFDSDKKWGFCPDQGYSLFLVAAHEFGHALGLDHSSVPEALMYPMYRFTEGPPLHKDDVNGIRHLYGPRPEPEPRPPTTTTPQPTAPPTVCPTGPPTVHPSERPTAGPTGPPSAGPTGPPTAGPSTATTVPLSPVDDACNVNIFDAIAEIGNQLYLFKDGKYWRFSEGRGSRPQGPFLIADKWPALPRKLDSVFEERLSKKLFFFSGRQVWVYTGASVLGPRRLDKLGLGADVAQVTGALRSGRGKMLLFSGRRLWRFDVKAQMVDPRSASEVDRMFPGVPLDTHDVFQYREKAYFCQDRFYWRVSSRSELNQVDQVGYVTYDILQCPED
Description for MCF7: Anticancer activity against human MCF7 cells assessed as reduction in cell viability by MTT assay
Description for in vitro: Selectivity index, ratio of IC50 for human WI38 cells to IC50 for human HepG2 cells

For `O=C(Nc1ccc([N+](=O)[O-])cc1)C(c1ccccc1)N(C(=O)c1ccccc1[N+](=O)[O-])c1cccc(Br)c1` (configuration not stated), the IC50 stood at 156 nM in series [1], 138 nM with HepG2, 168 nM in the series with MCF7 and 199 nM in the series with WI-38. Further, the selectivity ratio in “in vitro” was 1.44. Moreover, the EC100 with WI-38 is 89.7 nM.
As to `O=C(Nc1ccc([N+](=O)[O-])cc1)C(c1ccc(Br)cc1)N(C(=O)c1ccccc1[N+](=O)[O-])c1ccccc1` (configuration not stated), the IC50 is 82.1 nM in series [1], 76.1 nM with HepG2, 84.7 nM in the series with MCF7 and 233 nM with WI-38. For the same compound, in “in vitro”, the selectivity ratio was 3.06. The EC100 with WI-38 is on record as 12.7 nM.
As to `O=C(Nc1ccc([N+](=O)[O-])cc1)C(c1ccccc1[N+](=O)[O-])N(C(=O)c1ccccc1[N+](=O)[O-])c1ccccc1` (configuration not stated), the IC50 came to 208 nM in series [1], 435 nM in the series on HepG2, 184 nM in the series with MCF7 and 360 nM with WI-38. For the same compound, in “in vitro”, the selectivity ratio amounted to 0.828. In addition, the EC100 in the series with WI-38 was 198.9 nM.
Turning to `O=C(Nc1ccc([N+](=O)[O-])cc1)C(c1ccccc1[N+](=O)[O-])N(C(=O)C(F)(F)F)c1ccccc1` (configuration not stated), the IC50 in series [1] worked out at 52.6 nM; in the series on HepG2, 68.8 nM; with MCF7, 14.8 nM; in the series on WI-38, 348 nM. Besides, in the series “in vitro”, the selectivity ratio turned out to be 5.06. The EC100 with WI-38 was determined as 112.4 nM.
Consider `O=C(Nc1ccc([N+](=O)[O-])cc1)C(c1ccccc1)N(C(=O)/C=C/c1ccccc1)c1ccccc1` (configuration not stated), for which the IC50 in series [1] amounted to 13 nM; with HepG2 it was 19.5 nM; in the series on MCF7, 12.9 nM; with WI-38, 29.1 nM. In addition, in the series “in vitro”, the selectivity ratio worked out at 1.49. Also, in the series with WI-38, the EC100 was determined as 4.8 nM.
As for `Cc1ccc(N(C(=O)c2ccc(Cl)cc2)C(C(=O)Nc2ccc([N+](=O)[O-])cc2)c2ccccc2)cc1` (configuration not stated), the half-inhibitory concentration (IC50) in series [1] stood at 54.2 nM; in the series with HepG2, 50.7 nM; in the series with MCF7, 64 nM; with WI-38 it was 42.7 nM. Besides, the selectivity ratio in “in vitro” stood at 0.842. In the series on WI-38, the EC100 came to 18.25 nM.
For the compound `O=C(Nc1ccc([N+](=O)[O-])cc1)C(c1ccccc1)N(C(=O)CCC(=O)N(c1ccccc1)C(C(=O)Nc1ccc([N+](=O)[O-])cc1)c1ccccc1)c1ccccc1` (configuration not stated), the IC50 in series [1] amounted to 137 nM; in the series on HepG2, 125 nM; in the series on MCF7, 164 nM; in the series on WI-38, 195 nM. In addition, in the series “in vitro”, the selectivity ratio worked out at 1.56. The EC100 in the series on WI-38 is 141.4 nM.
Turning to `CC(C)(C)OC(=O)NCC(=O)N(c1ccccc1)C(C(=O)Nc1ccc([N+](=O)[O-])cc1)c1ccccc1` (configuration not stated), the IC50 in series [1] was determined as 31.9 nM; in the series with HepG2 it was 35.9 nM; with MCF7 it was 18 nM; in the series with WI-38 it was 42.9 nM. In addition, the selectivity ratio in the series “in vitro” is 1.2. The EC100 with WI-38 stood at 18.2 nM.
Turning to `Cc1ccc(N(C(=O)c2ccc(Br)cc2)C(C(=O)Nc2ccc([N+](=O)[O-])cc2)c2ccccc2)cc1` (configuration not stated), the IC50 in series [1] came out at 121 nM; with HepG2, 111 nM; in the series with MCF7, 122 nM; in the series with WI-38, 260 nM. For the same compound, in the series “in vitro”, the selectivity ratio stood at 2.34. The EC100 in the series on WI-38 was 36.1 nM.
For the compound `CC(=O)N(c1ccccc1)C(C(=O)Nc1ccc([N+](=O)[O-])cc1)c1ccccc1` (configuration not stated), the IC50 is 287 nM in series [1], 180 nM in the series with HepG2, 309 nM in the series with MCF7 and 509 nM with WI-38. Further, the selectivity ratio in “in vitro” worked out at 2.83. Besides, in the series on WI-38, the EC100 was 301 nM.
Take `O=C(Nc1ccc([N+](=O)[O-])cc1)C(c1ccccc1)N(C(=O)c1ccccc1[N+](=O)[O-])c1ccc(I)cc1` (configuration not stated): the IC50 in series [1] turned out to be 182 nM; with HepG2, 180 nM; with MCF7, 181 nM; with WI-38, 318 nM. In addition, the selectivity ratio in “in vitro” stood at 1.77. In addition, the EC100 with WI-38 stood at 188.3 nM.
As for `Cc1ccc(N(C(=O)c2ccc([N+](=O)[O-])cc2)C(C(=O)Nc2ccc([N+](=O)[O-])cc2)c2ccccc2)cc1` (configuration not stated), the IC50 in series [1] stood at 92.3 nM; in the series on HepG2, 74.6 nM; in the series on MCF7, 104 nM; in the series with WI-38, 182 nM. Besides, in “in vitro”, the selectivity ratio amounted to 2.44. Further, in the series with WI-38, the EC100 came to 113.6 nM.
As to `O=CN(c1ccccc1)C(C(=O)Nc1ccc([N+](=O)[O-])cc1)c1ccccc1` (configuration not stated), the IC50 came out at 94.1 nM in series [1], 107 nM in the series with HepG2, 55.8 nM with MCF7 and 543 nM in the series with WI-38. The selectivity ratio in the series “in vitro” was 5.09. In addition, the EC100 with WI-38 worked out at 161.5 nM.
As to `O=C(Nc1ccc([N+](=O)[O-])cc1)C(c1ccccc1)N(C(=O)C(F)(F)F)c1ccccc1` (configuration not stated), the IC50 in series [1] was determined as 23.9 nM; with HepG2, 20.8 nM; in the series on MCF7, 28.4 nM; in the series with WI-38 it was 1460 nM. For the same compound, the selectivity ratio in the series “in vitro” was 70.3. Also, in the series on WI-38, the EC100 worked out at 540.3 nM.
Consider `O=C(Nc1ccc([N+](=O)[O-])cc1)C(c1ccc([N+](=O)[O-])cc1)N(C(=O)c1ccc([N+](=O)[O-])cc1)c1ccccc1` (configuration not stated), for which the 50% inhibitory concentration (IC50) in series [1] came out at 189 nM; in the series on HepG2 it was 187 nM; in the series with MCF7, 203 nM; in the series with WI-38, 143 nM. Also, the selectivity ratio in the series “in vitro” turned out to be 0.768. For the same compound, the EC100 in the series with WI-38 stood at 82.4 nM.
As for `O=C(Nc1ccc([N+](=O)[O-])cc1)C(c1ccccc1)N(C(=O)c1ccccc1[N+](=O)[O-])c1ccccc1` (configuration not stated), the IC50 amounted to 29.4 nM in series [1], 41.8 nM in the series on HepG2, 33.1 nM in the series with MCF7 and 422 nM in the series on WI-38. Further, the selectivity ratio in “in vitro” amounted to 10.1. Moreover, in the series on WI-38, the EC100 is recorded as 130.2 nM.
On to `O=C(Nc1ccc([N+](=O)[O-])cc1)C(c1ccccc1)N(C(=O)c1ccc(C(F)(F)F)cc1)c1ccccc1` (configuration not stated), for which the IC50 in series [1] amounted to 11.6 nM; in the series on HepG2, 8 nM; in the series with MCF7 it was 12 nM; in the series on WI-38 it was 46 nM. Moreover, the selectivity ratio in “in vitro” came out at 5.75. Further, the EC100 with WI-38 worked out at 26.9 nM.
As for `Cc1ccc(N(C(=O)c2ccccc2[N+](=O)[O-])C(C(=O)Nc2ccc([N+](=O)[O-])cc2)c2ccccc2)cc1` (configuration not stated), the IC50 in series [1] turned out to be 182 nM; with HepG2, 153 nM; in the series with MCF7, 295 nM; in the series on WI-38 it was 499 nM. Besides, the selectivity ratio in “in vitro” turned out to be 3.25. In addition, the EC100 with WI-38 came out at 305.4 nM.
With `Cc1ccc(N(C(=O)c2ccc(C(F)(F)F)cc2)C(C(=O)Nc2ccc([N+](=O)[O-])cc2)c2ccccc2)cc1` (configuration not stated), the IC50 stood at 10.3 nM in series [1], 9.4 nM in the series on HepG2, 8 nM in the series with MCF7 and 28.6 nM in the series with WI-38. In addition, in the series “in vitro”, the selectivity ratio stood at 3.04. The EC100 in the series with WI-38 was 14.9 nM.
On to `O=C(Nc1ccc([N+](=O)[O-])cc1)C(c1ccccc1)N(C(=O)Cc1ccccc1)c1ccccc1` (configuration not stated), for which the concentration for half-maximal inhibition (IC50) in series [1] worked out at 17.6 nM; in the series on HepG2, 17.8 nM; with MCF7, 26.4 nM; with WI-38, 819 nM. In addition, the selectivity ratio in “in vitro” was 46. The EC100 in the series with WI-38 was 290.7 nM.
In the case of `O=C(Nc1ccc([N+](=O)[O-])cc1)C(c1ccc([N+](=O)[O-])cc1)N(C(=O)c1ccccc1[N+](=O)[O-])c1ccccc1` (configuration not stated), the IC50 in series [1] is 162 nM; with HepG2, 159 nM; in the series on MCF7, 172 nM; with WI-38, 210 nM. Also, the selectivity ratio in the series “in vitro” amounted to 1.32. Further, the EC100 with WI-38 came to 158.3 nM.
With `O=C(Nc1ccc([N+](=O)[O-])cc1)C(c1ccccc1)N(C(=O)c1ccc([N+](=O)[O-])cc1)c1ccccc1` (configuration not stated), the IC50 in series [1] came out at 12.1 nM; in the series on HepG2 it was 21.2 nM; with MCF7 it was 26.9 nM; in the series with WI-38, 1200 nM. Moreover, in “in vitro”, the selectivity ratio came to 56.7. In the series with WI-38, the EC100 is on record as 469.8 nM.
Turning to `O=C(Nc1ccc([N+](=O)[O-])cc1)C(c1ccccc1)N(C(=O)C(Cl)(Cl)Cl)c1ccccc1` (configuration not stated), the IC50 is 22.8 nM in series [1], 30.9 nM in the series with HepG2, 11 nM with MCF7 and 4560 nM with WI-38. The selectivity ratio in the series “in vitro” is 148. Further, the EC100 with WI-38 stood at 1912 nM.
In the case of `NCC(=O)N(c1ccccc1)C(C(=O)Nc1ccc([N+](=O)[O-])cc1)c1ccccc1` (configuration not stated), the IC50 in series [1] stood at 168 nM; in the series with HepG2, 152 nM; with MCF7, 165 nM; in the series on WI-38, 218 nM. For the same compound, the selectivity ratio in the series “in vitro” is 1.44. The EC100 with WI-38 was 84.9 nM.
Turning to `COc1ccc(S(=O)(=O)N(CC(=O)NO)CC(C)C)cc1`, the values for the IC50 (in series [2]; in series [3]; on Collagenase 3) were 69 nM, 78.5 nM and 131 nM, respectively.
